# Laboratory results: US5849735A, “Tricyclic benzazepine vasopressin antagonists” (American Cyanamid Company, priority 1995, dated 1998)
# Tested on: vasopressin V2
# Assay: Vasopressin Antidiuretic (V2) Response in Conscious Rats with Free Access to Water Drinking Before But Not During the Experiment
# Type: in vivo, rat (Sprague-Dawley)
# Conditions: N=2
# Source text: Vasopressin Antidiuretic (V2) Response in Conscious Rats with Free Access to Water Drinking Before But Not During the Experiment Male or female normotensive Sprague-Dawley rats (Charles River Laboratories, Inc., Kingston, N.Y.) of 400-450 g of body weight were supplied with Laboratory Rodent Feed #5001 (PMI Feeds, Inc., Richmond, Ind.) and water ad libitum. On the day of test, rats were placed individually into metabolic cages equipped with stainless steel screens (to separate the feces from the urine) and funnels for collection of urine. Compounds, vehicle, or reference agent was given at various oral doses. During the test, rats were provided with no water or food. After dosing, urine was collected in graduated cylinders for four hours. Urine volume was measured. Urinary osmolality was determined using a Fiske One-Ten Osmometer (Fiske Associates, Norwood, Mass. 02062). An aliquot of each urine collection was analyzed for Na^+,K^+ and Cl^- using ion specific electrodes a in Beckman E3 (Electrolyte 3) analyzer. The vehicle used for testing compounds was 20% dimethylsulfoxide (DMSO) in 2.5% preboiled starch. Compounds were dissolved in DMSO and then diluted in 2.5% corn starch (final concentration of DMSO was 20%). All rats were orally dosed with this mixture at […], by gavage.
SMILES,Osmolality (oral 10 mg/kg) [MOsm/kg],Urine Volume (oral 10 mg/kg) [ml/4 hrs],Osmolality (oral 1 mg/kg) [MOsm/kg],Urine Volume (oral 1 mg/kg) [ml/4 hrs],Osmolality (oral 3 mg/kg) [MOsm/kg],Urine Volume (oral 3 mg/kg) [ml/4 hrs]
"Cc1ccc(F)cc1C(=O)Nc1ccc(C(=O)N2CCc3cn[nH]c3-c3ccccc32)cn1 [Example 399, N-[5-[(4,5-Dihydropyrazolo[4,3-d][1]benzazepin-6(1H)-yl)carbonyl]-2-pyridinyl]-5-fluoro-2-methylbenzamide]",404,17.0,–,–,–,–
"O=C(Nc1ccc(C(=O)N2Cc3cccnc3Nc3ccccc32)cc1)c1ccccc1-c1ccccc1 [Example 133, N-[4-(6,11-Dihydropyrido[2,3-b][1,5]benzodiazepin-6(5H)-ylcarbonyl)-phenyl][1.1'-biphenyl]-2-carboxamide]",234,27.5,–,–,–,–
O=C(Nc1ccc(C(=O)N2CCc3cn[nH]c3-c3ccccc32)cc1)c1ccccc1-c1ccccc1 [Example 396],238,21.8,–,–,–,–
"O=C(Nc1ccc(C(=O)N2CCc3cn[nH]c3-c3ccccc32)cn1)c1ccccc1-c1ccccc1 [Example 398, N-[5-[(4,5-Dihydropyrazolo[4,3-d][1]benzazepin-6(1H)-yl)carbonyl]-2-pyridinyl][1,1'-biphenyl]-2-carboxamide]",316,20.5,–,–,–,–
"O=C(Nc1ccc(C(=O)N2Cc3ccccc3Oc3ccccc32)c(Cl)c1)c1ccccc1-c1ccccc1 [Example 47, N-[4-(Dibenz[b,f][1,4]oxazepin-10(11H)-ylcarbonyl)-3-chlorophenyl][1,1'biphenyl]-2-carboxamide]",394,22.0,–,–,–,–
"O=C(Nc1ccc(C(=O)N2Cc3ccccc3Nc3ccccc32)c(Cl)c1)c1ccccc1-c1ccccc1 [Example 218, N-[4-[(5,11-Dihydro-10H-dibenz[b,e][1,4]diazepin-10-yl)carbonyl]-3-chlorophenyl][1,1'-biphenyl]-2-carboxamide]",222,34,–,–,–,–
"O=C(Nc1ccc(C(=O)N2Cc3ccccc3Cc3ccccc32)cc1)c1ccccc1-c1ccccc1 [Example 301, N-[4-[(6,11-Dihydro-5H-dibenz[b,e]azepin-5-yl)carbonyl]-phenyl][1,1'-biphenyl]-2-carboxamide]",363,41.5,–,–,–,–
"O=C(Nc1ccc(C(=O)N2Cc3ccccc3Nc3ccccc32)cn1)c1ccccc1-c1ccccc1 [Example 257, N-[5-[(5,11-Dihydro-10H-dibenz[b,e][1,4]diazepin-10-yl)carbonyl]-2-pyridinyl][1,1'-biphenyl]-2-carboxamide]",317,22.5,–,–,–,–
"O=C(Nc1ccc(C(=O)N2Cc3cccnc3Oc3ccccc32)cn1)c1ccccc1-c1ccccc1 [Example 66, N-[5-(Pyrido[2,3-b][1,5]benzoxazepin-6(5H)-ylcarbonyl)-2-pyridinyl][1,1'biphenyl]-2-carboxamide]",442,17.0,–,–,–,–
O=C(Nc1ccc(C(=O)N2CCc3cn[nH]c3-c3ccccc32)c(Cl)c1)c1ccccc1-c1ccccc1 [Example 397],288,29.8,–,–,–,–
"Cc1ccc(F)cc1C(=O)Nc1ccc(C(=O)N2Cc3ccccc3Nc3ncccc32)cn1 [Example 352, N-[5-[(6,11-Dihydro-5H-pyrido[2,3-b][1,4]benzodiazepin-5-yl)carbonyl]-2-pyridinyl]-5-fluoro-2-methylbenzamide]",779,9.3,–,–,–,–
Cc1ccc(F)cc1C(=O)Nc1ccc(C(=O)N2Cc3cscc3Nc3ccccc32)cn1 [Example 400],270,24.8,–,–,–,–
"O=C(Nc1ccc(C(=O)N2Cc3cccnc3Nc3ccccc32)c(Cl)c1)c1ccccc1-c1ccccc1 [Example 134, N-[4-(6,11-Dihydropyrido[2,3-b][1,5]benzodiazepin-6(5H)-ylcarbonyl)-3-chlorophenyl][1,1'-biphenyl]-2-carboxamide]",333,40.5,596,18.2,396,28
"Cl.O=C(Nc1ccc(C(=O)N2Cc3cccnc3Nc3ccccc32)cc1)c1ccccc1-c1ccccc1 [Example 135, N-[4-(6,11-Dihydropyrido[2,3-b][1,5]benzodiazepin-6(5H)-ylcarbonyl)-phenyl][1,1'-biphenyl]-2-carboxamide, hydrochloride]",284,39.5,526,19.5,391,26.8
"O=C(c1ccc(-c2cccs2)cc1)N1Cc2ccccc2Nc2ccccc21 [Example 404, 5,11-Dihydro-10-[4-(2-thienyl)benzoyl]-10H-dibenz[b,e][1,4]diazepine]",909,6,–,–,–,–
"O=C(Nc1ccc(C(=O)N2Cc3cccnc3Nc3ccccc32)cn1)c1ccccc1-c1ccccc1 [Example 176, N-[5-(6,11-Dihydropyrido[2,3-b][1,5]benzodiazepin-6(5H)-ylcarbonyl)-2-pyridinyl][1,1'-biphenyl]-2-carboxamide]",567,12.8,–,–,–,–
"O=C(Nc1ccc(C(=O)N2Cc3ccccc3Cc3ccccc32)c(Cl)c1)c1ccccc1-c1ccccc1 [Example 302, N-[4-[(6,11-Dihydro-5H-dibenz[b,e]azepin-5-yl)carbonyl]-3-chlorophenyl][1,1'-biphenyl]-2-carboxamide]",356,40,–,–,–,–
"O=C(Nc1ccc(C(=O)N2Cc3cccnc3Oc3ccccc32)c(Cl)c1)c1ccccc1-c1ccccc1 [Example 67, N-[4-(Pyrido[2,3-b][1,5]benzoxazepin-6(5H)-ylcarbonyl)-3-chlorophenyl][1,1'-biphenyl]-2-carboxamide]",402,21.5,–,–,–,–
